{"source": "patent US20090062122A1", "about": "“Cotton Growth Regulator” (FMC Corporation, priority 2006, published 2009)", "key": {"cotton, variety D&PL 555 [1]": {"test_system": "cotton, variety D&PL 555", "experiment": "% defoliation of cotton plants, field trial", "assay_type": "in vivo", "conditions": "20% open boll application, 1 replicate", "protocol": "(§1) The trial was performed on cotton, variety D&PL 555. The formulated test compounds were diluted to the appropriate concentrations with water to which a crop oil concentrate (1% to 2% v/v) or a non-ionic surfactant (0.25% v/v) was added. The application of the test composition as a cotton plant growth regulator was performed using pressurized, over-the-top spray equipment consisting of a research scale boom sprayer. Deposit of the test composition was primarily to the top of the cotton plants, minimizing spray deposition to lower branches, leaves and fruit. The finished spray volume was 10 gallons per acre, with sprayer nozzle design, orientation and nozzle pressures chosen to prevent spray drift. Applications were made at first sign of cotton boll opening and at 15%, 20% and 40% open bolls.\n(§2) The experimental design used randomized plots with 1 to 4 treatment rates of test composition and from 1 to 10 replications depending on the test (sees tables below). The size of each experimental plot was about 15 m^2. Testing was performed in Texas, North Carolina, Mississippi and Georgia.\n(§3) Percent desiccation, percent defoliation, percent terminal control and percent open bolls were evaluated at 7 and 14 days after application (DAA) of the test composition. Inspection of cotton plants for insect control of armyworm larvae was performed at 2 DAA and insect damage to bolls was performed at the time of harvest\nDefoliation refers to removal of leaves. Percent defoliation rating approximates the proportion of leaves of all sizes shed per 100 leaves present prior to application of the cotton growth regulator compound. An evaluation of the foliage in the untreated check plots was first undertaken. Then the test plots were individually evaluated. The percent of leaves dropped by the plants in the treated plot was determined using observations within the plot and comparisons to foliage in the untreated plot.\n(§4) The results, shown as the mean of the indicated number of replications, were compared with results observed in the same trials with an untreated control."}, "cotton, variety D&PL 555 [2]": {"test_system": "cotton, variety D&PL 555", "experiment": "% desiccation of cotton leaves, field trial", "assay_type": "in vivo", "protocol": "as §1, §2, §3\nDesiccation refers to leaves or portions of leaves dried to debris following tissue death. […] An evaluation of the condition of leaves in the untreated check plots were observed. Then the test plots were individually evaluated. The percent of all leaves completely or partially desiccated by the test application were recorded, based upon live leaves and leaf debris within the test plot relative to foliage present in the untreated plot.\nas §4"}}}
{"molecule": "CCCCSP(=O)(SCCCC)SCCCC", "note": "[tribufos, S,S,S-tributyl phosphorotrithioate]", "values": [{"measurement": "% Defoliation", "setting": "cotton, variety D&PL 555 [1]; 0.14 lb ai/a, 7 DAA", "value": 30, "unit": "%"}, {"measurement": "% Desiccation", "setting": "cotton, variety D&PL 555 [2]; 20% open boll application, 0.14 lb ai/a, 7 DAA, 1 replicate", "value": 78, "unit": "%"}]}
{"molecule": "CCCCCOC(=O)COc1cc(N2C(=O)C3=C(CCCC3)C2=O)c(F)cc1Cl", "note": "[flumiclorac-pentyl ester, pentyl [2-chloro-4-fluoro-5-(1,3,4,5,6,7-hexahydro-1,3-dioxo-2H-isoindol-2-yl)phenoxy]acetate]", "values": [{"measurement": "% Desiccation", "setting": "cotton, variety D&PL 555 [2]; first open boll application, 0.027 lb ai/a, 7 DAA, 3 replicates", "value": 16, "unit": "%"}, {"measurement": "% Desiccation", "setting": "cotton, variety D&PL 555 [2]; first open boll application, 0.027 lb ai/a, 14 DAA, 3 replicates", "value": 13, "unit": "%"}, {"measurement": "% Desiccation", "setting": "cotton, variety D&PL 555 [2]; first open boll application, 0.04 lb ai/a, 7 DAA, 3 replicates", "value": 19, "unit": "%"}, {"measurement": "% Desiccation", "setting": "cotton, variety D&PL 555 [2]; first open boll application, 0.04 lb ai/a, 14 DAA, 3 replicates", "value": 12, "unit": "%"}]}
{"molecule": "CC(C)N.O=C(O)CNCP(=O)(O)O", "note": "[glyphosate, N-(phosphonomethyl)glycine isopropylamine salt]", "values": [{"measurement": "% Defoliation", "setting": "cotton, variety D&PL 555 [1]; 0.5 lb ai/a, 14 DAA", "value": 7, "unit": "%"}, {"measurement": "% Desiccation", "setting": "cotton, variety D&PL 555 [2]; 20% open boll application, 0.5 lb ai/a, 14 DAA, 1 replicate", "value": 67, "unit": "%"}]}
{"molecule": "CCOC(=O)COc1cc(-c2nn(C)c(OC(F)F)c2Cl)c(F)cc1Cl", "note": "[pyraflufen-ethyl, ethyl 2-chloro-5-[4-chloro-5-(difluoromethoxy)-1-methyl-1H-pyrazol-3-yl]-4-fluorophenoxyacetate]", "values": [{"measurement": "% Desiccation", "setting": "cotton, variety D&PL 555 [2]; first open boll application, 0.0008 lb ai/a, 7 DAA, 3 replicates", "value": 13, "unit": "%"}, {"measurement": "% Desiccation", "setting": "cotton, variety D&PL 555 [2]; first open boll application, 0.0008 lb ai/a, 14 DAA, 3 replicates", "value": 11, "unit": "%"}, {"measurement": "% Desiccation", "setting": "cotton, variety D&PL 555 [2]; first open boll application, 0.0016 lb ai/a, 7 DAA, 3 replicates", "value": 19, "unit": "%"}, {"measurement": "% Desiccation", "setting": "cotton, variety D&PL 555 [2]; first open boll application, 0.0016 lb ai/a, 14 DAA, 3 replicates", "value": 13, "unit": "%"}]}
{"molecule": "CC1=C(C)S(=O)(=O)CCS1(=O)=O", "note": "[dimethipin, 2,3-dihydro-5,6-dimethyl-1,4-dithiin-1,1,4,4-tetraoxide]", "values": [{"measurement": "% Defoliation", "setting": "cotton, variety D&PL 555 [1]; 0.23 lb ai/a, 7 DAA", "value": 28, "unit": "%"}, {"measurement": "% Desiccation", "setting": "cotton, variety D&PL 555 [2]; 20% open boll application, 0.23 lb ai/a, 7 DAA, 1 replicate", "value": 40, "unit": "%"}]}
{"molecule": "C[n+]1ccc(-c2cc[n+](C)cc2)cc1.[Cl-].[Cl-]", "note": "[paraquat, 1,1′-dimethyl-4,4′-bipyridinium dichloride]", "values": [{"measurement": "% Defoliation", "setting": "cotton, variety D&PL 555 [1]; 0.13 lb ai/a, 14 DAA", "value": 8, "unit": "%"}, {"measurement": "% Desiccation", "setting": "cotton, variety D&PL 555 [2]; 20% open boll application, 0.13 lb ai/a, 14 DAA, 1 replicate", "value": 90, "unit": "%"}]}
{"molecule": "COC(=O)CSc1cc(/N=c2\\sc(=O)n3n2CCCC3)c(F)cc1Cl", "note": "[fluthiacet-methyl, methyl [[2-chloro-4-fluoro-5-[(tetrahydro-3-oxo-1H,3H-[1,3,4]thiadiazolo[3,4-a]pyridazin-1-ylidine)amino]phenyl]thio]acetate]", "values": [{"measurement": "% Desiccation", "setting": "cotton, variety D&PL 555 [2]; first open boll application, 0.0018 lb ai/a, 7 DAA, 1 replicate", "value": 25, "unit": "%"}, {"measurement": "% Desiccation", "setting": "cotton, variety D&PL 555 [2]; first open boll application, 0.0018 lb ai/a, 14 DAA, 1 replicate", "value": 17, "unit": "%"}]}
